{
  "source": "patent US11096940B2",
  "about": "“Treatment of hepatocellular carcinoma characterized by hepatitis B virus infection” (Celgene Corporation, priority 2017, dated 2021)",
  "format_in_all_cases": "in vivo, human",
  "key": {"[1]": {"tested_on": "subjects with various hematologic or solid malignancies", "test": "Phase 1/2 clinical study Part A, dose escalation (MTD determination)", "settings": "oral", "protocol": "The study was designed as a Phase 1/2 trial consisting of two parts: dose escalation (Part A) and dose expansion (Part B).\nPart A was an open-label, dose-escalating study of subjects with various hematologic or solid malignancies. The primary objectives were to determine the maximum tolerated dose (MTD) and the preliminary PK of Compound 1. The MTD of Compound 1 was determined to be 45 mg/day, and the nontolerated dose (NTD) was determined to be 60 mg/day. The PK and PD data supported once daily dosing with Compound 1."}, "subjects with HCC": {"tested_on": "subjects with HCC", "test": "Phase 1/2 clinical study Part B, dose expansion: efficacy (RECIST response, OS, PFS) in HCC subjects", "text": "Part B, the preliminary efficacy-seeking phase, was an open-label, dose-expansion study, which involved subjects with HCC.\n(§1) Subjects received continuous daily dosing of Compound 1 in 28-day cycles (FIG. 1). Therapy was discontinued if there was evidence of disease progression, but subjects continued to receive Compound 1 as long as the investigator considered that the subjects derived benefit from treatment. Therapy was discontinued if there was unacceptable toxicity or if the subject decided to withdraw from the study. Subjects were contacted 28 days after the last dose of study drug to assess the status of adverse events (AEs) and to determine whether any new events or death had occurred. In addition to those subjects who had died on study, approximately 28 subjects were consented for follow-up every 2 months (±1 week) after completing the treatment phase in order to determine their date of death and complete an overall survival analysis.\nAccordingly to the original protocol of Part B, 25 HCC patients started treatment of Compound 1 at 45 mg/day. After the protocol Amendment 9, 28 new HCC subjects in an additional cohort were started at 30 mg/day. The appropriateness of the 30 mg/day dose was supported by the PK and PD data from Part A. Compound 1 was administered orally, in an uninterrupted once daily schedule with no rest period between each 28-day cycle. Subjects continued to receive Compound 1 for as long as they derived benefit from treatment as judged by the investigator.\nAll efficacy analyses were based on both the TP and EE Population. Subjects were evaluated for efficacy during Cycles 2, 4, 6, and every 3 months after Cycle 6. The primary efficacy variable was response rate. Efficacy endpoints for HCC matured once all enrolled subjects had withdrawn from the study.\nTumor response for HCC was based on investigator's overall evaluation with RECIST. Response rate was determined by a best overall response of either CR or PR. Disease control rate (DCR) included CR, PR, and SD.\nOS was defined as the time from first dose to death. All deaths, regardless of the cause of death, were included. Subjects who had not died were censored at the last contact date when the subject was known to be alive or the clinical cut-off date, whichever was earlier.\nMedian of OS times were calculated using the Kaplan-Meier method and the corresponding 95% CIs were presented."}, "[2]": {"test": "PK analysis: plasma concentration in HCC patients by HBV status", "settings": "after oral Compound 1, first treatment cycle; FIGS. 3A, 3B", "protocol": "The PK profiles of Compound 1 and its metabolite M1 were determined from serial blood and urine collections during the first treatment cycle. Plasma and urine Compound 1 and M1 were measured using validated chiral liquid chromatography-mass spectrometry methods. The lower limit of quantification (LLOQ) in plasma was 1.00 or 2.00 ng/mL for Compound 1 and 10.0 ng/mL for M1. The LLOQ in urine was 5.00 ng/mL for Compound 1 and 20 ng/mL for M1. […]"}, "alpha-fetoprotein (AFP)": {"tested_on": "alpha-fetoprotein (AFP)", "test": "Assessment of AFP in HCC patients", "settings": "two HBV positive HCC patients with PR (FIG. 10)", "protocol": "For the HCC subjects, baseline and change from baseline in AFP and HBV viral load (HBsAg positive subjects only) were summarized with descriptive statistics. In addition, a Wilcoxon's signed rank test was conducted to analyze change from baseline in AFP at selected scheduled visits. The p-values of such tests were provided. Change from baseline in HBV viral load was analyzed similarly. The percentage of subjects with a >50% decline from baseline in AFP was summarized for the TP."}, "[3]": {"test": "Phase 1/2 clinical study Part B: safety and tolerability in HCC subjects", "settings": "subjects with HCC", "text": "The primary objectives for Part B were (a) to determine the safety and tolerability of Compound 1 when administered orally and (b) to determine the preliminary PK of Compound 1 following both single and multiple oral dosing of Compound 1.\nas §1"}},
  "note": "“Also recorded” adds a separate entry of the source.",
  "data": [
    {"molecule": "CO[C@H]1CC[C@H](N2C(=O)CNc3ncc(-c4ccc(C(C)(C)O)nc4)nc32)CC1", "note": "[Compound 1, 7-(6-(2-hydroxypropan-2-yl)pyridin-3-yl)-1-((trans)-4-methoxycyclohexyl)-3,4-dihydropyrazino[2,3-b]pyrazin-2(1H)-one]", "values": [
      {"measurement": "maximum tolerated dose (MTD)", "setting": "[1]", "value": 45, "unit": "mg/day"},
      {"measurement": "nontolerated dose (NTD)", "setting": "[1]", "value": 60, "unit": "mg/day"},
      {"measurement": "DCR", "setting": "subjects with HCC; EE Population", "value": 68.3, "unit": "%"},
      {"measurement": "ORR", "setting": "subjects with HCC; EE Population", "value": 7.3, "unit": "%"},
      {"measurement": "rate of tumor regression relative to pretreatment", "setting": "subjects with HCC; EE Population", "value": 56.1, "unit": "%"},
      {"measurement": "median OS", "setting": "subjects with HCC; HBV infected HCC patients", "value": 12.07, "unit": "months"},
      {"measurement": "ORR", "setting": "subjects with HCC; HBV negative subgroups", "value": 0, "unit": "%"},
      {"measurement": "disease control rate (DCR)", "setting": "subjects with HCC; HBV negative subjects", "value": 43.9, "unit": "%"},
      {"measurement": "median OS", "setting": "subjects with HCC; HBV negative subjects", "value": 22.4, "unit": "weeks"},
      {"measurement": "median PFS", "setting": "subjects with HCC; HBV negative subjects", "value": 14.4, "unit": "weeks"},
      {"measurement": "target tumor shrinkage rate", "setting": "subjects with HCC; HBV negative subjects", "value": 39.0, "unit": "%"},
      {"measurement": "ORR", "setting": "subjects with HCC; HBV positive subjects", "value": 25, "unit": "%"},
      {"measurement": "disease control rate (DCR)", "setting": "subjects with HCC; HBV positive subjects", "value": 91.7, "unit": "%"},
      {"measurement": "median OS", "setting": "subjects with HCC; HBV positive subjects", "value": 52.4, "unit": "weeks"},
      {"measurement": "median PFS", "setting": "subjects with HCC; HBV positive subjects", "value": 14.8, "unit": "weeks"},
      {"measurement": "target tumor shrinkage rate", "setting": "subjects with HCC; HBV positive subjects", "value": 66.7, "unit": "%"},
      {"measurement": "complete response (CR)", "setting": "subjects with HCC; HCC TP", "value": "No subject experienced a CR"},
      {"measurement": "overall response rate (ORR)", "setting": "subjects with HCC; HCC TP", "value": 5.7, "unit": "%"},
      {"measurement": "subjects with best response of SD", "setting": "subjects with HCC; HCC TP", "value": 49.1, "unit": "%"},
      {"measurement": "number of subjects with >30% regression of target tumor lesion", "setting": "subjects with HCC; HCC cohort, RECIST 1.1 (FIG. 7)", "value": "Five"},
      {"measurement": "median OS", "setting": "subjects with HCC; HCC cohort, all patients (FIG. 5A)", "value": 6.9, "unit": "months"},
      {"measurement": "median PFS", "setting": "subjects with HCC; HCC cohort, all patients (FIG. 6A)", "value": 16, "unit": "weeks"},
      {"measurement": "number of subjects achieving PR", "setting": "subjects with HCC; HCC cohort, all HBV positive", "value": 3, "unit": "subjects"},
      {"measurement": "median OS", "setting": "subjects with HCC; TP", "value": 30.0, "unit": "weeks"},
      {"measurement": "median PFS", "setting": "subjects with HCC; TP", "value": 3.7, "unit": "months"},
      {"measurement": "disease control rate (DCR)", "setting": "subjects with HCC; all subjects (HCC TP)", "value": 54.7, "unit": "%"},
      {"measurement": "rate of target tumor shrinkage (target lesion regression relative to pretreatment)", "setting": "subjects with HCC; all subjects (HCC TP)", "value": 45.3, "unit": "%"},
      {"measurement": "median OS", "setting": "subjects with HCC; non-HBV infected HCC patients", "value": 5.16, "unit": "months"},
      {"measurement": "median duration of response (DOR)", "setting": "subjects with HCC; the 3 subjects who reached PR", "value": 124.0, "unit": "days"},
      {"measurement": "median duration of SD", "setting": "subjects with HCC; the 26 subjects with best response of SD", "value": 112.0, "unit": "days"},
      {"measurement": "radiographic response at first on-treatment restaging compared to baseline", "setting": "subjects with HCC; two HBV infected HCC patients, Patient A and Patient B (FIG. 9)", "value": "regression of intrathoracic metastases; also recorded: intrahepatic tumor regression"},
      {"measurement": "plasma exposure in HBV infected HCC patients (n=12) versus non-HBV infected HCC patients (n=39)", "setting": "[2]", "value": "comparable to the exposure observed in non-HBV infected HCC patients"},
      {"measurement": "AFP on treatment compared to baseline", "setting": "alpha-fetoprotein (AFP)", "value": "early clinically significant, marked reduction of AFP"},
      {"measurement": "tolerability", "setting": "[3]", "value": "well tolerated"}
    ]}
  ]
}
